The results in this text go back to patent US10975056B2 (GlaxoSmithKline Intellectual Property Development Limited, priority 2016, dated 2021).

Assay [1] concerns the target DNMT1 (Homo sapiens, UniProt P26358). Put plainly: DNMT1 biochemical activity, breaklight assay and/or SPA assay.
The test system of assay [2] is erythroid progenitor cells (EPCs). The assay is described as follows: Fetal hemoglobin (HbF) ELISA in day 7 erythroid progenitor cells.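 Further: for fetal hemoglobin induction normalized to vehicle-treated cells.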 The class given is cell-based, human. The note with it: Homo sapiens, Erythroid progenitor cell, HbF ELISA, day 7 EPCs, 5 days; read-out: EPC ELISA (pEC50 category) (converted). Summed up: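 CD34+-derived EPCs, 1,000 cells/well, rhEPO 3 U/mL; Compound A 22-pt series, […]; 5 d, 37° C, 5% CO2. Freeze-thaw lysis, anti-HbF capture + HRP anti-HbF, TMB, OD450. Normalized to DMSO wells.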
Background: ELISA stands for enzyme-linked immunosorbent assay.

The mark [3] stands for this setting: binned activity in either the breaklight or the SPA assay, read-out: DNMT1 BioChemical (pIC50 category) (converted).
[4] abbreviates: binned activity in either the breaklight or the SPA assay.
Where [5] appears, read: breaklight assay and/or SPA assay, repeated experimental runs, read-out: average pIC50 against DNMT1 (converted).

Structures are written as SMILES. Values joined by “and” are separate entries in the source; they are usually repeats but may differ in a detail not shown here. Equal entries are not always repeated. Structures can show the parent of a compound that is named as a salt. Where two headings read alike, the source gives them in different places. Some results are limits rather than exact numbers.

Sequence of DNMT1 (P26358 whole entry, looked up): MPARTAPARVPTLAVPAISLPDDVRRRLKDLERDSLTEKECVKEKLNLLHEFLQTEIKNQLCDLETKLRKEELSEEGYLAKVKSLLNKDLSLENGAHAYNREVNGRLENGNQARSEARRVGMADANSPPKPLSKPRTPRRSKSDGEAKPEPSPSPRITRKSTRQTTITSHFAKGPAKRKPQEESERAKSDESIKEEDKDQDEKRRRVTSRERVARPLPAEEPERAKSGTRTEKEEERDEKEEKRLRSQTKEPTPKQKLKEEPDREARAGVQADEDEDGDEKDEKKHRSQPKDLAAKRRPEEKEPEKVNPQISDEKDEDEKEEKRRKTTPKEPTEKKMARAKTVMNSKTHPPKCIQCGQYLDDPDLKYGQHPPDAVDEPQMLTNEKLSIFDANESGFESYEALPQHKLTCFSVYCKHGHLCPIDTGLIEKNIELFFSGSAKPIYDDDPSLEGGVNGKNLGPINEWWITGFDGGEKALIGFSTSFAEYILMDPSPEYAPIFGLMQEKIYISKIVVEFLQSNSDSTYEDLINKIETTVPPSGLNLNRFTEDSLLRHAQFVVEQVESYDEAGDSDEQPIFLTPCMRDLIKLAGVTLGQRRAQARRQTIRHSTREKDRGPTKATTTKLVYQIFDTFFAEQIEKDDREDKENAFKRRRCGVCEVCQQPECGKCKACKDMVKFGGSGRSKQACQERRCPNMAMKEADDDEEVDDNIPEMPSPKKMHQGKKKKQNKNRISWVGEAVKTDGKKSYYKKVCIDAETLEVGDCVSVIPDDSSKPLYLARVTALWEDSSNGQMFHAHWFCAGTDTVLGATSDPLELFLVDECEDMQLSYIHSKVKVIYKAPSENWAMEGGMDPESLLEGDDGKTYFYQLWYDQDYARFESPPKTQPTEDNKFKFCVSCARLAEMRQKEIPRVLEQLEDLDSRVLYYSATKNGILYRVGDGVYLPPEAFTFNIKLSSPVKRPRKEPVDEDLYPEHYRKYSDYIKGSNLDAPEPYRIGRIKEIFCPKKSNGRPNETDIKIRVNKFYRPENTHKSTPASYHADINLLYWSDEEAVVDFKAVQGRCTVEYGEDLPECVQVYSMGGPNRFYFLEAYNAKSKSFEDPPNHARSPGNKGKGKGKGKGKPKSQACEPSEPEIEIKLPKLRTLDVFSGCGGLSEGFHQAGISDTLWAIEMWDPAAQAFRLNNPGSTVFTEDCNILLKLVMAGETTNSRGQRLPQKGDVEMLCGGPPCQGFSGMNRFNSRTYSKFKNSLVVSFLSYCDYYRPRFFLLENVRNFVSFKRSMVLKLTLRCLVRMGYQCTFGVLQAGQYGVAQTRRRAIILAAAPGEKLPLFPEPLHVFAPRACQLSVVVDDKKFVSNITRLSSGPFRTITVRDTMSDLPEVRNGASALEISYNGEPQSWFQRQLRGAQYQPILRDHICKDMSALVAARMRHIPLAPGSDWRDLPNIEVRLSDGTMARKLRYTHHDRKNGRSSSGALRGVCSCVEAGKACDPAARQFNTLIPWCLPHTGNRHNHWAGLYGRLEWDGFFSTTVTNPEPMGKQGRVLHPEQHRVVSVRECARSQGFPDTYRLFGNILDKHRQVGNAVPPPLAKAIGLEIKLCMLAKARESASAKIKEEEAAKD

As to `CCc1c(C#N)c(SC(C(N)=O)c2c(F)cccc2F)nc(N2CC[C@H](O)C2)c1C#N` (stereo partly drawn) [Example 428], the IC50 in assay [1] (setting [3]) is 316 to 1000 nM. Further, in assay [2], the EC50 is 316 to 1000 nM.

With `CCc1c(C#N)c(SCc2ccc(CNC(=O)CO)cc2)nc(N(C)C)c1C#N` [Example 278, N-(4-(((3,5-Dicyano-6-(dimethylamino)-4-ethylpyridin-2-yl)thio)methyl)benzyl)-2-hydroxyacetamide], the “DNMT1 BioChemical (pIC50 category)” value in assay [1] (setting [4]) is given as “D (Category D: ≥6.5)”. Besides, the EC50 in assay [2] is 1000 to 31600 nM.

On to `CCc1c(C#N)c(SC(C(N)=O)c2ccncc2)nc(N(C)C)c1C#N` (stereo not drawn) [Example 27, 2-((3,5-dicyano-6-(dimethylamino)-4-ethylpyridin-2-yl)thio)-2-(pyridin-4-yl)acetamide], for which the “DNMT1 BioChemical (pIC50 category)” value in assay [1] (setting [4]) was “D (Category D: ≥6.5)”. Besides, the EC50 in assay [2] was above 31600 nM.

On to `CC1(N)CCN(c2nc(SC(C(N)=O)c3ccccc3)c(C#N)c(C3CC3)c2C#N)CC1` (stereo not drawn) [Example 321, 2-((6-(4-Amino-4-methylpiperidin-1-yl)-3,5-dicyano-4-cyclopropvlpyridin-2-yl)thio)-2-phenylacetamide], for which the “DNMT1 BioChemical (pIC50 category)” value in assay [1] (setting [4]) is on record as “D (Category D: ≥6.5)”. Besides, the EC50 in assay [2] is below 316 nM.

As to `CCc1c(C#N)c(SCc2ccc(NS(C)(=O)=O)nc2)nc(N2CCCN(C)CC2)c1C#N` [Example 335, N-(5-(((3,5-dicyano-4-ethyl-6-(4-methyl-1,4-diazepan-1-yl)pyridin-2-yl)thio)methyl)pyridin-2-yl)methanesulfonamide], the IC50 in assay [1] (setting [3]) is 316 to 1000 nM. The EC50 in assay [2] was above 31600 nM.

On to `N#Cc1c(SC(C(N)=O)c2ccccc2)nc(N2CC(NC(=O)CN)C2)c(C#N)c1C1CC1` (stereo not drawn) [Example 610, 2-amino-N-(1-(6-((2-amino-2-oxo-1-phenylethyl)thio)-3,5-dicyano-4-cyclopropylpyridin-2-yl)azetidin-3-yl)acetamide], for which, in assay [1] (setting [4]), the “DNMT1 BioChemical (pIC50 category)” value is reported as “D (Category D: ≥6.5)”. Moreover, in assay [2], the EC50 is 1000 to 31600 nM.

`N#Cc1c(SC(C(N)=O)c2ccccc2)nc(N2CCC(CN3CCCC3)CC2)c(C#N)c1C1CC1` (stereo not drawn) [Example 39, 2-((3,5-Dicyano-4-cyclopropyl-6-(4-(pyrrolidin-1-ylmethyl)piperidin-1-yl)pyridin-2-yl)thio)-2-phenylacetamide]: in assay [1] (setting [4]), the “DNMT1 BioChemical (pIC50 category)” value is “D (Category D: ≥6.5)”. Further, in assay [2], the EC50 is below 316 nM.

For `CCc1c(C#N)c(SC(C(N)=O)c2ccccc2)nc(N(C)CC(=O)N2CCC2)c1C#N` (stereo not drawn) [Example 631, 2-((6-((2-(azetidin-1-yl)-2-oxoethyl)(methyl)amino)-3,5-dicyano-4-ethylpyridin-2-yl)thio)-2-phenylacetamide], the “DNMT1 BioChemical (pIC50 category)” value in assay [1] (setting [4]) is “D (Category D: ≥6.5)”. The EC50 in assay [2] is below 316 nM.

Take `CCc1c(C#N)c(SC(C(N)=O)c2ccccc2)nc(N2CCC(N3CC[C@H](F)C3)CC2)c1C#N` (stereo partly drawn) [Example 457, 2-((3,5-dicyano-4-ethyl-6-(4-((S)-3-fluoropyrrolidin-1-yl)piperidin-1-yl)pyridin-2-yl)thio)-2-phenylacetamide]: the “DNMT1 BioChemical (pIC50 category)” value in assay [1] (setting [4]) is reported as “D (Category D: ≥6.5)”. In assay [2], the EC50 is below 316 nM.

`CCc1c(C#N)c(SC(C(N)=O)c2ccccc2)nc(N2CCC[C@@H](CN)C2)c1C#N` (stereo partly drawn) [Example 576, 2-((6-((S)-3-(aminomethyl)piperidin-1-yl)-3,5-dicyano-4-ethylpyridin-2-yl)thio)-2-phenylacetamide]: the IC50 in assay [1] (setting [3]) was below 316 nM. Besides, the EC50 in assay [2] was below 316 nM.

Take `CCc1c(C#N)c(SC(C(N)=O)c2ccc(CC(N)=O)cc2)nc(N(C)C)c1C#N` (stereo not drawn) [Example 401, 2-(4-(2-Amino-2-oxoethyl)phenyl)-2-(3,5-dicyano-6-(dimethylamino)-4-ethylpyridin-2-ylthio)acetamide]: the “DNMT1 BioChemical (pIC50 category)” value in assay [1] (setting [4]) is recorded as “D (Category D: ≥6.5)”. Also, the EC50 in assay [2] was 1000 to 31600 nM.

`CCc1c(C#N)c(SC(C(N)=O)c2ccc(F)cc2)nc(N(C)C)c1C#N` (stereo not drawn) [Example 198, 2-((3,5-Dicyano-6-(dimethylamino)-4-ethylpyridin-2-yl)thio)-2-(4-fluorophenyl)acetamide]: in assay [1] (setting [4]), the “DNMT1 BioChemical (pIC50 category)” value was “D (Category D: ≥6.5)”. The EC50 in assay [2] was 316 to 1000 nM.

As for `CCc1c(C#N)c(SC(C(N)=O)c2ccccc2)nc(N2CC(NC(=O)CO)C2)c1C#N` (stereo not drawn) [Example 288, N-(1-(6-((2-Amino-2-oxo-1-phenylethyl)thio)-3,5-dicyano-4-ethylpyridin-2-yl)azetidin-3-yl)-2-hydroxyacetamide], the “DNMT1 BioChemical (pIC50 category)” value in assay [1] (setting [4]) is “D (Category D: ≥6.5)”. The EC50 in assay [2] is 1000 to 31600 nM.

Regarding `CCc1c(C#N)c(SC(C(N)=O)c2ccc(C(=O)c3ccccc3)cc2)nc(N2CCCN(CCO)CC2)c1C#N` (stereo not drawn) [Example 245, 2-(4-Benzoylphenyl)-2-((3,5-dicyano-4-ethyl-6-(4-(2-hydroxyethyl)-1,4-diazepan-1-yl)pyridin-2-yl)thio)acetamide], the IC50 in assay [1] (setting [3]) was 316 to 1000 nM. Also, the EC50 in assay [2] was 316 to 1000 nM.

With `CCc1c(C#N)c(SC(C(N)=O)c2ccc(C)cn2)nc(N(C)C)c1C#N` (stereo not drawn) [Example 238, 2-((3,5-Dicyano-6-(dimethylamino)-4-ethylpyridin-2-yl)thio)-2-(5-methylpyridin-2-yl)acetamide], the “DNMT1 BioChemical (pIC50 category)” value in assay [1] (setting [4]) is “D (Category D: ≥6.5)”. Besides, the EC50 in assay [2] is 1000 to 31600 nM.

As for `CCc1c(C#N)c(SC(C(N)=O)c2ccccc2)nc(N2CCC(N3CC[C@@H](F)C3)CC2)c1C#N` (stereo partly drawn) [Example 460, 2-((3,5-dicyano-4-ethyl-6-(4-((R)-3-fluoropyrrolidin-1-yl)piperidin-1-yl)pyridin-2-yl)thio)-2-phenylacetamide], in assay [1] (setting [4]), the “DNMT1 BioChemical (pIC50 category)” value is “D (Category D: ≥6.5)”. Also, the EC50 in assay [2] was below 316 nM.

In the case of `CCc1c(C#N)c(SC(C(N)=O)c2ccccc2)nc(N2CCN(CCO)C(=O)C2)c1C#N` (stereo not drawn) [Example 504, 2-((3,5-dicyano-4-ethyl-6-(4-(2-hydroxyethyl)-3-oxopiperazin-1-yl)pyridin-2-yl)thio)-2-phenylacetamide], in assay [1] (setting [4]), the “DNMT1 BioChemical (pIC50 category)” value is listed as “D (Category D: ≥6.5)”. For the same compound, in assay [2], the EC50 is 1000 to 31600 nM.

In the case of `CCc1c(C#N)c(SCc2ccc(S(C)(=O)=O)cc2)nc(N2CCCN(C)CC2)c1C#N` [Example 379, 4-Ethyl-2-(4-methyl-1,4-diazepan-1-yl)-6-((4-(methylsulfonyl)benzyl)thio)pyridine-3,5-dicarbonitrile], the IC50 in assay [1] (setting [3]) was 316 to 1000 nM; in assay [1] (setting [5]) it was 316 to 1000 nM and 794 nM. In addition, in assay [2], the EC50 is 316 to 1000 nM.

With `CCc1c(C#N)c(SC(C(N)=O)c2ccccc2)nc(N(C)CCn2cnnc2)c1C#N` (stereo not drawn) [Example 352, 2-((6-((2-(4H-1,2,4-Triazol-4-yl)ethyl)(methyl)amino)-3,5-dicyano-4-ethylpyridin-2-yl)thio)-2-phenylacetamide], the IC50 in assay [1] (setting [3]) is 316 to 1000 nM. Besides, the EC50 in assay [2] was 1000 to 31600 nM.

For the compound `CCc1c(C#N)c(SC(C(N)=O)c2cccnc2F)nc(N2CCCN(C)CC2)c1C#N` (stereo not drawn) [Example 225], the IC50 in assay [1] (setting [3]) is 1000 to 31600 nM. The EC50 in assay [2] is 316 to 1000 nM.

Take `CCc1c(C#N)c(SCc2ccc(N(C)S(C)(=O)=O)cc2)nc(N(C)CCN)c1C#N` [Example 484, N-(4-(((6-((2-aminoethyl)(methyl)amino)-3,5-dicyano-4-ethylpyridin-2-yl)thio)methyl)phenyl)-N-methylmethanesulfonamide]: the “DNMT1 BioChemical (pIC50 category)” value in assay [1] (setting [4]) is listed as “D (Category D: ≥6.5)”. Moreover, the EC50 in assay [2] was below 316 nM.

As to `CCc1c(C#N)c(SCc2ccc(CNC(=O)CN)cc2)nc(N(C)C)c1C#N` [Example 268, 2-Amino-N-(4-(((3,5-dicyano-6-(dimethylamino)-4-ethylpyridin-2-yl)thio)methyl)benzyl)acetamide], the IC50 in assay [1] (setting [3]) was 1000 to 31600 nM. Besides, in assay [2], the EC50 is 1000 to 31600 nM.

In the case of `CCc1c(C#N)c(SCc2ccc(NC(C)=O)cc2)nc(N(C)C)c1C#N` [Example 273], the IC50 in assay [1] (setting [3]) is 316 to 1000 nM. The EC50 in assay [2] was 1000 to 31600 nM.

As for `CCc1c(C)c(N2CCNCC2)nc(SC(C(N)=O)c2ccccc2)c1C#N` (stereo not drawn) [Example 293, 2-((3-Cyano-4-ethyl-5-methyl-6-(piperazin-1-yl)pyridin-2-yl)thio)-2-phenylacetamide], in assay [1] (setting [3]), the IC50 was 316 to 1000 nM. Further, in assay [2], the EC50 is above 31600 nM.

As to `CCc1c(C#N)c(SC(C(N)=O)c2ccccc2)nc(N2CCO[C@H](CNC(=O)CN)C2)c1C#N` (stereo partly drawn) [Example 592, 2-amino-N-(((2R)-4-(6-((2-amino-2-oxo-1-phenylethyl)thio)-3,5-dicyano-4-ethylpyridin-2-yl)morpholin-2-yl)methyl)acetamide], in assay [1] (setting [4]), the “DNMT1 BioChemical (pIC50 category)” value is listed as “D (Category D: ≥6.5)”. Besides, in assay [1] (breaklight assay and/or SPA assay, repeated experimental runs), the “average pIC50 against DNMT1” value is listed as above 6.5. Moreover, in assay [1] (setting [5]), the IC50 was 158 nM. In addition, the EC50 in assay [2] was below 316 nM.

Consider `CCc1c(C#N)c(SCc2ccc(CN)cc2)nc(N2CCCN(C)CC2)c1C#N` [Example 71, 2-((4-(Aminomethyl)benzyl)thio)-4-ethyl-6-(4-methyl-1,4-diazepan-1-yl)pyridine-3,5-dicarbonitrile, 2Hydrochloride], for which the “DNMT1 BioChemical (pIC50 category)” value in assay [1] (setting [4]) was “D (Category D: ≥6.5)”. In assay [2], the EC50 is above 31600 nM.

As for `CCc1c(C#N)c(SCc2ccc(OCCN(C)C)cc2)nc(N2CCCN(C)CC2)c1C#N` [Example 377, 2-(4-(2-(Dimethylamino)ethoxy)benzylthio)-4-ethyl-6-(4-methyl-1,4-diazepan-1-yl)pyridine-3,5-dicarbonitrile], the IC50 is 1000 to 31600 nM in assay [1] (setting [3]) and at least 1000 nM in assay [1] (setting [5]). For the same compound, the EC50 in assay [2] is above 31600 nM.

Consider `CCc1c(C#N)c(SC(C(N)=O)c2ccc(F)cc2)nc(N2CCC(N(C)C)CC2)c1C#N` (stereo not drawn) [Example 207, 2-((3,5-Dicyano-6-(4-(dimethylamino)piperidin-1-yl)-4-ethylpyridin-2-yl)thio)-2-(4-fluorophenyl)acetamide], for which, in assay [1] (setting [3]), the IC50 was 316 to 1000 nM. The EC50 in assay [2] is below 316 nM.
